Literature values as cited in US6083980A, “Furanyl, tetracyclic triterpene derivatives with immunosuppressant activity” (Merck & Co., Inc., priority 1998, dated 2000).

Test system: Kv 1.3 channels (CHO cells transfected with Kv 1.3 channels)
Details: stated for the reference blocker used to establish the efflux window

margatoxin (TIINVKCTSPKQCLPPCKAQFGQSAGAKCMNGKCKCYPH; UniProt P40755 1-39, looked up)
IC50: 0.1 nM
